Assay results from patent publication US12312332B2 (Merck Sharp & Dohme LLC., priority 2019, dated 2025).

Biological target: T1, human OX2R (Homo sapiens, UniProt O43614)
T1 construct: expressed in transfected cells; host or cells: Chinese hamster ovary (CHO) cells, kept under G418 selection
T1 sequence (O43614 1-444): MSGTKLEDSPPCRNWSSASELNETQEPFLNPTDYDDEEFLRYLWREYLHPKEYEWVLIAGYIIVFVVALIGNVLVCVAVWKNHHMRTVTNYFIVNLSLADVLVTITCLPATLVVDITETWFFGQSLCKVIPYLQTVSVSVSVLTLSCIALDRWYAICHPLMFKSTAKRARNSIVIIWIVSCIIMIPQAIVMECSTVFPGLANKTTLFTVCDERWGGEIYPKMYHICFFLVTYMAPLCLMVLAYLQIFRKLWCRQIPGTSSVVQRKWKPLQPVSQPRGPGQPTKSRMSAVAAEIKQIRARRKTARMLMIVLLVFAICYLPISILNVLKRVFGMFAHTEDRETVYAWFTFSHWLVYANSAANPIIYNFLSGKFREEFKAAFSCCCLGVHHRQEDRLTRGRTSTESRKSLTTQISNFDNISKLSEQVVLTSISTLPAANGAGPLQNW
Test: IPOne (IP-One) orexin receptor agonist assay in CHO cells expressing human OX2R
Assay type: cell-based
Conditions: for EC50: CHO cells expressing human OX2R, IP-One detection, 2 hours incubation, four parameter logistic fit, read-out: OX2R Potency, EC50; for % max agonist effect (Emax): human OX2R, percentage of sample raw value/mean max effect (reference compound at 1 uM with 100% activity)
Excerpt: The utility of the compounds in accordance with the present invention as orexin receptor OX1R and/or OX2R agonists may be readily determined without undue experimentation by methodology well known in the art. Both the OX1R and/or OX2R G-coupled protein receptors (GPCRs) couple through the Gaq signaling pathway, which ultimately promotes calcium mobilization via inositol triphosphate (IP3) production. […] The utility of the compounds in accordance with the present invention as orexin receptor OX1R and/or OX2R agonists may be determined utilizing this assay.
In a typical experiment, the OX1 and OX2 receptor agonist activity is determined in accordance with the following general experimental method. Chinese hamster ovary (CHO) cells expressing human OX1R and/or the human OX2R were grown in Iscove's modified DMEM containing glutaMAX™, 1% G418, 100 U/mL penicillin, 100 μg/mL streptomycin and 10% heat-inactivated qualified fetal bovine serum (FBS). […] During this incubation, IP-one detection reagents were prepared (38:1:1 lysis buffer:D2:AB-cryptate reagents).
For each compound, data were fit to a four parameter logistic fit (ActivityBase software) and the EC50 was reported as the inflection point of the resulting curve. Percent effect for each test compound was determined as the percentage of sample raw value/mean max effect, where the mean max effect was derived from the mean raw value of 32 control wells per assay plate (using Orexin A (cat #003-30) at 1 μM for human OX1R and a reference compound at 1 uM with 100% activity previously established by comparison to Orexin A for human OX2R). The intrinsic orexin receptor agonist activity of a compound which may be used in the present invention may be determined by these assays.

Structure (SMILES) | EC50 [µM] | % max agonist effect (Emax) [%]
CS(=O)(=O)N[C@H]1CCN(c2cncs2)[C@H]1CO[C@H]1CC[C@@H](c2ccccc2)CC1 [Example 26, N-((2R,3S)-2-((((CIS)-4-phenylcyclohexyl)oxy)methyl)-1-(thiazol-5-yl)pyrrolidin-3-yl)methanesulfonamide] | 0.444 | 99.0
CS(=O)(=O)N[C@H]1CCN(c2cc(C#N)ccn2)[C@H]1CO[C@H]1CC[C@@H](c2ccccc2)CC1 [Example 138, N-((2R,3S)-1-(4-cyanopyridin-2-yl)-2-((((CIS)-4-phenylcyclohexyl)oxy)methyl)pyrrolidin-3-yl)methanesulfonamide] | 0.0721 | 99.8
Cc1scnc1N1CC[C@H](NS(C)(=O)=O)[C@@H]1CO[C@H]1CC[C@@H](c2ccccc2)CC1 [Example 84, N-((2R,3S)-1-(5-methylthiazol-4-yl)-2-((((CIS)-4-phenylcyclohexyl)oxy)methyl)pyrrolidin-3-yl)methanesulfonamide] | 0.109 | 100.7
CS(=O)(=O)N[C@H]1CCN(c2cncc(-c3ccccc3)c2)[C@H]1CO[C@H]1CC[C@@H](c2ccccc2)CC1 (relative stereo) [Example 1, N-((CIS)-2-((((CIS)-4-Phenylcyclohexyl)oxy)methyl)-1-(5-phenylpyridin-3-yl)pyrrolidin-3-yl)methanesulfonamide] | > 10 | 35.7
COc1cc(N2CC[C@H](NS(C)(=O)=O)[C@@H]2CO[C@H]2CC[C@@H](c3ccccc3)CC2)ccn1 [Example 59, N-((2R,3S)-1-(2-methoxypyridin-4-yl)-2-((((CIS)-4-phenylcyclohexyl)oxy)methyl)pyrrolidin-3-yl)methanesulfonamide] | 2.86 | 87.2
Cc1ncc(N2CC[C@H](NS(C)(=O)=O)[C@@H]2CO[C@H]2CC[C@@H](c3ccccc3)CC2)n1C [Example 32, N-((2R,3S)-1-(1,2-dimethyl-1H-imidazol-5-yl)-2-((((CIS)-4-phenylcyclohexyl)oxy)methyl)pyrrolidin-3-yl)methanesulfonamide] | 0.037 | 100.2
CS(=O)(=O)N[C@H]1CCN(c2cc(O)c(F)cn2)[C@H]1CO[C@H]1CC[C@@H](c2cccc(F)c2)CC1 [Example 99, N-((2R,3S)-1-(5-fluoro-4-hydroxypyridin-2-yl)-2-((((CIS)-4-(3-fluorophenyl)cyclohexyl)oxy)methyl)pyrrolidin-3-yl)methanesulfonamide] | 0.00027 | 101.2
CS(=O)(=O)N[C@H]1CCN(c2cc(O)c(Cl)cn2)[C@H]1CO[C@H]1CC[C@@H](c2cccc(F)c2)CC1 [Example 97, N-((2R,3S)-1-(5-chloro-4-hydroxypyridin-2-yl)-2-((((CIS)-4-(3-fluorophenyl)cyclohexyl)oxy)methyl)pyrrolidin-3-yl)methanesulfonamide] | 0.0006 | 100.9
CC(C)(O)c1ccc(N2CC[C@H](NS(C)(=O)=O)[C@@H]2CO[C@H]2CC[C@@H](c3ccccc3)CC2)cn1 [Example 61, N-((2R,3S)-1-(6-(2-hydroxypropan-2-yl)pyridin-3-yl)-2-((((CIS)-4-phenylcyclohexyl)oxy)methyl)pyrrolidin-3-yl)methanesulfonamide] | 0.0383 | 101.3
COc1ccc(N2CC[C@H](NS(C)(=O)=O)[C@@H]2CO[C@H]2CC[C@@H](c3ccccc3)CC2)cc1 (relative stereo) [Example 6, N-((CIS)-1-(4-methoxyphenyl)-2-((((CIS)-4-phenylcyclohexyl)oxy)methyl)pyrrolidin-3-yl)methanesulfonamide] | 9.22 | 25.1
COc1c(F)cnc(N2CC[C@H](NS(C)(=O)=O)[C@@H]2CO[C@H]2CC[C@@H](c3cccc(F)c3)CC2)c1F [Example 100, N-((2R,3S)-1-(3,5-difluoro-4-methoxypyridin-2-yl)-2-((((CIS)-4-(3-fluorophenyl)cyclohexyl)oxy)methyl)pyrrolidin-3-yl)methanesulfonamide] | 0.716 | 99.6
COc1ccncc1N1CC[C@H](NS(C)(=O)=O)[C@@H]1CO[C@H]1CC[C@@H](c2ccccc2)CC1 [Example 51, N-((2R,3S)-1-(4-methoxypyridin-3-yl)-2-((((CIS)-4-phenylcyclohexyl)oxy)methyl)pyrrolidin-3-yl)methanesulfonamide] | 0.0142 | 100.3
CS(=O)(=O)N[C@H]1CCN(c2ncc(CO)s2)[C@H]1CO[C@H]1CC[C@@H](c2ccccc2)CC1 [Example 102, N-((2R,3S)-1-(5-(hydroxymethyl)thiazol-2-yl)-2-((((CIS)-4-phenylcyclohexyl)oxy)methyl)pyrrolidin-3-yl)methanesulfonamide] | 4.83 | 67.4
CS(=O)(=O)N[C@H]1CCN(c2cc(C(F)(F)F)ncn2)[C@H]1CO[C@H]1CC[C@@H](c2ccccc2)CC1 [Example 46, N-((2R,3S)-2-((((CIS)-4-phenylcyclohexyl)oxy)methyl)-1-(6-(trifluoromethyl)pyrimidin-4-yl)pyrrolidin-3-yl)methanesulfonamide] | > 10 | 43.4

Further lines, results first:

EC50 [µM] | % max agonist effect (Emax) [%] | Structure (SMILES)
0.0017 | 102.4 | CS(=O)(=O)N[C@H]1CCN(c2ncc(Cl)c(O)c2F)[C@H]1CO[C@H]1CC[C@@H](c2ccccc2)CC1 [Example 114, N-((2R,3S)-1-(5-chloro-3-fluoro-4-hydroxypyridin-2-yl)-2-((((CIS)-4-phenylcyclohexyl)oxy)methyl)pyrrolidin-3-yl)methanesulfonamide]
0.176 | 104.3 | CS(=O)(=O)N[C@H]1CCN(c2ccc(OC(F)F)cn2)[C@H]1CO[C@H]1CC[C@@H](c2ccccc2)CC1 [Example 35, N-((2R,3S)-1-(5-(difluoromethoxy)pyridin-2-yl)-2-((((CIS)-4-phenylcyclohexyl)oxy)methyl)pyrrolidin-3-yl)methanesulfonamide]
0.162 | 100.7 | CS(=O)(=O)N[C@H]1CCN(c2ncccc2OC(F)(F)F)[C@H]1CO[C@H]1CC[C@@H](c2ccccc2)CC1 [Example 127]
0.782 | 98.9 | COc1cc(N2CC[C@H](NS(C)(=O)=O)[C@@H]2CO[C@H]2CC[C@@H](c3ccccc3)CC2)cnc1OC [Example 54, N-((2R,3S)-1-(5,6-dimethoxypyridin-3-yl)-2-((((CIS)-4-phenylcyclohexyl)oxy)methyl)pyrrolidin-3-yl)methanesulfonamide]
0.164 | 100.6 | CS(=O)(=O)N[C@H]1CCN(c2ncccc2C#N)[C@H]1CO[C@H]1CC[C@@H](c2ccccc2)CC1 [Example 136, N-((2R,3S)-1-(3-cyanopyridin-2-yl)-2-((((CIS)-4-phenylcyclohexyl)oxy)methyl)pyrrolidin-3-yl)methanesulfonamide]
0.251 | 100.0 | Cc1ncc(N2CC[C@H](NS(C)(=O)=O)[C@@H]2CO[C@H]2CC[C@@H](c3ccccc3)CC2)cn1 [Example 60, N-((2R,3S)-1-(2-methylpyrimidin-5-yl)-2-((((CIS)-4-phenylcyclohexyl)oxy)methyl)pyrrolidin-3-yl)methanesulfonamide]
3.54 | 90.4 | CS(=O)(=O)N[C@H]1CCN(c2ccnc(CO)c2)[C@H]1CO[C@H]1CC[C@@H](c2ccccc2)CC1 [Example 43, N-((2R,3S)-1-(2-(hydroxymethyl)pyridin-4-yl)-2-((((CIS)-4-phenylcyclohexyl)oxy)methyl)pyrrolidin-3-yl)methanesulfonamide]
> 10 | 74.1 | CS(=O)(=O)N[C@H]1CCN(c2cccc(C#N)c2)[C@H]1CO[C@H]1CC[C@@H](c2ccccc2)CC1 [Example 147, N-((2R,3S)-1-(3-cyanophenyl)-2-((((CIS)-4-phenylcyclohexyl)oxy)methyl)pyrrolidin-3-yl)methanesulfonamide]
0.0101 | 100.9 | CS(=O)(=O)NC1CCCN(c2cccnc2)C1CO[C@H]1CC[C@@H](c2ccccc2)CC1 (stereo partly drawn) [Example 159, N-(2-((((CIS)-4-phenylcyclohexyl)oxy)methyl)-1-(pyridin-3-yl)piperidin-3-yl)methanesulfamide]
